{"source": "patent US20220025336A1", "about": "“METHOD FOR PRODUCING INSULIN-PRODUCING CELLS, AND COMPOSITION” (KATAOKA CORPORATION, priority 2018, published 2022)", "key": {"human fibroblasts": {"system": "human fibroblasts", "assay": "Direct induction from human fibroblasts into insulin-producing cells; amount of insulin secreted", "assay_type": "cell-based", "source_text": "(§1) The insulin-producing cell produced by the present invention process can be detected, identified, and isolated using, for example, a morphological change of a cell, a characteristic property of an insulin-producing cell, or a specific marker (e.g., an anti-insulin antibody). Moreover, the secretory capacity of the obtained insulin-producing cell can also be evaluated by quantifying the amount of secreted insulin using sandwich ELISA.\nThe human fibroblasts used as the material were purchased from DS Pharma Biomedical Co., Ltd. The fibroblasts are derived from human skin.\nHuman fibroblasts were seeded in 35-mm dishes coated with gelatin (Cat#: 190-15805, manufactured by Wako Pure Chemical Industries, Ltd.) at 5×10^4 cells/dish, and cultured in DMEM medium (manufactured by Gibco) supplemented with 10% fetal bovine serum (FBS), 100 U/mL penicillin, and 100 μg/mL streptomycin until confluent under conditions of 37° C. and 5% CO2. Note that DMEM refers to Dulbecco's Modified Eagle's Medium.\nThe medium of dishes of the human fibroblasts described above was replaced with the differentiation induction medium described below.\nDifferentiation induction medium: Advanced DMEM/F-12 (Cat#: 12634010; manufactured by Gibco) supplemented with ITS-X (Cat#: 51500056, manufactured by Gibco), non-essential amino acids (NEAA; Cat#: 11140050, manufactured by Gibco), Glutamine (manufactured by Gibco; final concentration: 2 mmol/L), Nicotinamide (Cat#: 72340-10OG, manufactured by Sigma-Aldrich; final concentration: 10 mmol/L), Exendin-4 (Cat#: av120214, manufactured by Abcam; final concentration: 100 ng/mL), 100 U/mL penicillin, 100 μg/mL streptomycin, insulin, and low molecular weight compounds described below, with or without addition of 10% fetal bovine serum (FBS, manufactured by Hyclone).\nSubsequently, the cells were cultured under conditions of 37° C. and 5% CO2 while the medium was changed to the medium of the same composition every three days. […]"}, "[1]": {"system": "human adipose tissue-derived mesenchymal stem cells (AdMSC)", "assay": "Direct induction from human adipose tissue-derived mesenchymal stem cells (AdMSC) into insulin-producing cells; amount of insulin secreted", "assay_type": "cell-based", "settings": "FIG. 5; 120 μg/mL insulin; cultured 14 days", "source_text": "as §1\nHuman mesenchymal stem cells isolated from adipose tissue were purchased from Takara Bio Co., Ltd.\nHuman mesenchymal stem cells were seeded in 35-mm dishes coated with gelatin (Cat#: 190-15805, manufactured by Wako Pure Chemical Industries, Ltd.) at 5×10^4 cells/dish, and cultured in Mesenchymal Stem Cell Growth Medium 2 (Cat#: C-28009; manufactured by Takara Bio Co., Ltd.) supplemented with 100 U/mL penicillin and 100 μg/mL streptomycin until the cells were almost confluent under conditions of 37° C. and 5% CO2.\nThe medium of dishes of the human mesenchymal stem cells described above was replaced with the differentiation induction medium described below. […]"}}, "data": [{"compound": "CC(C)CCN1c2nc(Nc3cc(F)c(O)c(F)c3)ncc2N(C)C(=O)C1C", "note": "(stereo not shown) [BI-D1870, reference compound]", "values": [{"measurement": "insulin secretion / secretory capacity of induced cells by combination of low molecular weight compounds", "setting": "human fibroblasts; FIG. 4, 3C (CHIR99021, BRD7389, forskolin) without BRD7389, or with BI-D1870 5 μM or 10 μM instead of BRD7389, no LY294002, 14 days", "value": "insulin-producing cells with a higher secretory capacity were also obtained"}]}, {"compound": "insulin: Human recombinant insulin (Cat#: 093-06351; Wako) added to the differentiation induction medium", "values": [{"measurement": "increase of the amount of insulin secretion by induction with a high concentration of insulin", "setting": "human fibroblasts; FIG. 2, 120 μg/mL vs 20 μg/mL insulin in differentiation induction medium, cultured 14 days", "value": "about 3 times"}, {"measurement": "amount of insulin secreted as a function of insulin concentration in the differentiation induction medium", "setting": "human fibroblasts; FIG. 3, insulin up to 100 μg/mL, cultured 14 days", "value": "the greater was the amount of insulin secreted"}, {"measurement": "amount of insulin secreted with a high concentration of insulin in the differentiation induction medium", "setting": "[1]", "value": "increased markedly"}]}]}
